For the assay, the system named is actively sensitized Brown Norway rats. The assay can be described thus: Allergen-induced pulmonary leukocyte accumulation in actively sensitized Brown Norway rats (3b alone). The assay is classed as in vivo. As to the method: Rats. Male Brown Norway rats were supplied by Harlan Olac Limited (Bicester, Oxon, UK) and delivered within the weight range of 180-200 g. Following acclimatization for at least five days, animals were actively sensitized over a 3-week period and were within the weight range 250-300 g at the time of allergen exposure. Food and water were provided ad libitum.
Sensitization. Ovalbumin (OA; 10 μg) mixed with aluminum hydroxide gel (10 mg) will be injected (0.5 mL, i.p.) into Brown Norway rats and repeated 7 and 14 days later.
Drug Treatment. On day 21, sensitized rats were anaesthetized (halothane 5% in O2) and 3b, dexamethasone, or vehicle (lactose) was instilled via a cannula placed directly into the trachea at 1 hour prior to OA exposure. This procedure was repeated at 24 hours and 48 hours after OA exposure.
Challenge. Following recovery, sensitized animals were restrained in plastic tubes and exposed (60 min) to an aerosol of OA (10 mg/mL) using a nose-only exposure system. Animals were sacrificed 72 hours later with pentobarbital (250 mg/kg i.p.).
Analysis. The lungs were lavaged using 3 aliquots (4 mL) of Hank's solution (HBSS x 10, 100 mL; EDTA 100 mM, 100 mL; HEPES 1M, 10 mL made to […] with water); recovered cells were pooled and the total volume of recovered fluid was adjusted to 12 mL by addition of Hank's solution. Total cells were counted (Sysmex Microcell Counter F-500, TOPA Medical Electronics Ltd., Japan). Smears were made by diluting recovered fluid (to approximately 10^6 cells/mL) and spinning an aliquot (100 μL) in a centrifuge (Cytospin, Shandon, UK). Smears were air dried, fixed using a solution of fast green in methanol (2 mg/L) for 5 seconds and stained with eosin G (5 seconds) and thiazine (5 seconds) (Diff-Quik, Baxter Dade Ltd, Switzerland) in order to differentiate eosinophils, neutrophils, macrophages and lymphocytes. A total of 500 cells per smear were counted by light microscopy under oil immersion (x 1000).

Setting [1] is: 0.1 and 0.3 mg/kg i.t. 1 h before, 24 h and 48 h after OA, 72 h.
[2] abbreviates: dose dependence, 72 hours after aerosolized ovalbumin.

For `CCCC1C(=O)NC2(C(O)C(C)C)OC(=O)C12` (stereo not drawn) [Compound 3b, 7-n-propyl-clasto-lactacystin β-lactone], under setting [1], the “influx of eosinophils in bronchoalveolar lavage fluid” value was “reduced” and the “influx of total leukocytes in bronchoalveolar lavage fluid” value is reported as “reduced”. The “lymphocyte count in bronchoalveolar lavage fluid” value (all doses i.t., 72 h after OA) is listed as “significant decrease”. Under setting [2], the “eosinophil count in bronchoalveolar lavage fluid (FIG. 4)” value is recorded as “dose dependent inhibition” and the “leukocyte count in bronchoalveolar lavage fluid (FIG. 3)” value is on record as “dose-dependent reduction”.

The values are drawn from patent US20010051654A1, “Treatment of inflammatory and autoimmune diseases” (priority 1997, published 2001).
